ChEMBL document CHEMBL4706547, “Discovery and structure-activity relationship studies of 1-aryl-1H-naphtho[2,3-d][1,2,3]triazole-4,9-dione derivatives as potent dual inhibitors of indoleamine 2,3-dioxygenase 1 (IDO1) and trytophan 2,3-dioxygenase (TDO)” (Eur J Med Chem, 2020)
Converted amounts (≈) assume the structure as drawn. The source made the active and inactive calls. The rule behind the calls is not given here.

Assays:
[1] = target: T1, Indoleamine 2,3-dioxygenase 1 (Homo sapiens, UniProt P14902)
T1 sequence (P14902 whole entry): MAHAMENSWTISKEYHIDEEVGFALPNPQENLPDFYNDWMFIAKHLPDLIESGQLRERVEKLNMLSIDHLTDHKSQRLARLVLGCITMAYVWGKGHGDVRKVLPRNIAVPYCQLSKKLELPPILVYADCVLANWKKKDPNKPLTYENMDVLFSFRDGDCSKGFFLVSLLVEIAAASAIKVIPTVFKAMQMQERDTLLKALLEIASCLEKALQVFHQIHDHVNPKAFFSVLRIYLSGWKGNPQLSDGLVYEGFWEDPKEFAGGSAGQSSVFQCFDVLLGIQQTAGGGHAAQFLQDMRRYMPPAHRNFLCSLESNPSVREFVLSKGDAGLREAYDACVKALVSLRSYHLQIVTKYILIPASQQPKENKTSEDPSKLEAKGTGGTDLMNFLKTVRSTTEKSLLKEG

[2] = target: T2, Tryptophan 2,3-dioxygenase (Homo sapiens, UniProt P48775); assay: Inhibition of TDO (unknown origin) assessed as reduction in L-kynurenine formation using L-tryptophan as substrate incubated for 30 mins microplate spectrophotometry analysis
T2 sequence (P48775 whole entry): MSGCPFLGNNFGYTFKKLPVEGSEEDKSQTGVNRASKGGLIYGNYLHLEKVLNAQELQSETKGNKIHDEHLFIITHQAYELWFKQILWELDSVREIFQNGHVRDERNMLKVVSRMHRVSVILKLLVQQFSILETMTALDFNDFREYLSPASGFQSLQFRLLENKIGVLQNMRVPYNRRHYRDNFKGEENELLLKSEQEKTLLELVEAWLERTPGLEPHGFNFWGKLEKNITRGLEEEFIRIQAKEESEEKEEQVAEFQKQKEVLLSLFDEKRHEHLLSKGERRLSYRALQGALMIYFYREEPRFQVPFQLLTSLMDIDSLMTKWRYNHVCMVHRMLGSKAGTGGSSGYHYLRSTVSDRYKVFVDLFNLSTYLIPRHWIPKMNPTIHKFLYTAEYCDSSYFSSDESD

[3] = target: T2, Tryptophan 2,3-dioxygenase; assay: Inhibition of TDO in human A 172 cells assessed as reduction in L-kynurenine formation using L-tryptophan as substrate incubated for 24 hrs; type: cell-based
[4] = Toxicity in C57BL/6 mouse […] with […] cells assessed as effect on body weight at 30 mg/kg, ip administered for 11 days and measured upto 20 days; type: organism-based; details: in vivo, time <=20 day
[5] = Solubility of compound; type: physicochemical
[6] = Redox activity of compound assessed as increase in H2O2 production incubated for 15 mins by HRP-PR staining based fluorometric analysis; type: physicochemical; details: 0.25 h
[7] = Antitumor activity against […] cells allografted in C57BL/6 mouse assessed as tumor growth inhibition at 30 mg/kg, ip administered for 11 days and measured upto 20 days relative to control; type: functional; details: LL/2, ip, time day <=20, read-out: TGI
[8] = target: T1, Indoleamine 2,3-dioxygenase 1; assay: Inhibition of IDO1 in IFN-gamma-induced human HeLa cells assessed as reduction in L-kynurenine formation using L-tryptophan as substrate incubated for 24 hrs
[9] = Antitumor activity against […] cells allografted in C57BL/6 mouse assessed as tumor growth inhibition at 30 mg/kg, ip administered for 11 days and measured upto 20 days relative to control; type: functional; details: Hepa1-6, ip, time day <=20, read-out: TGI
[10] = Toxicity in C57BL/6 mouse […] with […] cells assessed as effect on body weight at 30 mg/kg, ip administered for 11 days and measured upto 20 days; type: organism-based; details: in vivo, time <=20 day
[11] = Redox activity of compound assessed as increase in H2O2 production at > 50 uM incubated for 15 mins by HRP-PR staining based fluorometric analysis relative to control; type: physicochemical; details: 0.25 h
LL2 = details: dose 30.0 mg/kg, time day <=20

Row | Compound | IC50 [1] | IC50 [2] | also measured
1 | CN1CCN(c2ccc(-n3nnc4c3C(=O)c3ccccc3C4=O)cc2)CC1 | > 10000 nM | > 10000 nM | 
2 | CC(=O)Nc1cccc(-n2nnc3c2C(=O)c2ccccc2C3=O)c1 | 81 nM | 132 nM | 
3 | O=C1c2cc(F)ccc2C(=O)c2c1nnn2-c1ccc(F)c(Cl)c1 | 5 nM | 4 nM | IC50 [3]: 59 nM; Activity [4]: Non-Toxic; solubility [5]: 0.16 µM (≈ 0.0553 µg/mL); Activity [6]: Not Active; inhibition in vivo at 30 mg/kg [7]: 62.5%; IC50 [8]: 98 nM; inhibition in vivo at 30 mg/kg [9]: 80%; Activity [10]: Non-Toxic; Activity [11]: Not Active
4 | Cc1cccc(-n2nnc3c2C(=O)c2ccccc2C3=O)c1 | 122 nM | 64 nM | 
5 | NS(=O)(=O)NCCNc1nonc1C(=NO)Nc1ccc(F)c(Br)c1 [EPACADOSTAT] |  | > 10000 nM | 
6 | NS(=O)(=O)c1ccc(-n2nnc3c2C(=O)c2ccccc2C3=O)cc1 | 30 nM | 48 nM | 
7 | O=C1c2ccccc2C(=O)c2c1nnn2-c1ccc(Cl)cc1 | 23 nM | 15 nM | 
8 | COc1ccc2c(c1)C(=O)c1nnn(-c3ccc(F)c(Cl)c3)c1C2=O | 163 nM | 105 nM | 
9 | O=C1c2ccccc2C(=O)c2c1nnn2-c1ccc(Cl)nc1 | 27 nM | 25 nM | 
10 | O=C1c2ccccc2C(=O)c2c1nnn2-c1ccc2[nH]cnc2c1 | 78 nM | 104 nM | 
11 | O=C1c2ccccc2C(=O)c2c1nnn2-c1ccc(C(F)(F)F)c(Cl)c1 | 30 nM | 25 nM | 
12 | O=C(O)c1cccc(-n2nnc3c2C(=O)c2ccccc2C3=O)c1 | 114 nM | 71 nM | 
13 | O=C1c2ccccc2C(=O)c2c1nnn2-c1cccnc1 | 23 nM | 21 nM | 
14 | O=C1c2ccccc2C(=O)c2c1nnn2-c1cnc(Cl)c(Cl)c1 | 113 nM | 248 nM | 
15 | O=C1c2ccc(F)cc2C(=O)c2c1nnn2-c1ccc(F)c(Cl)c1 | 10 nM | 10 nM | 
16 | O=C1c2ccc(O)cc2C(=O)c2c1nnn2-c1ccc(F)c(Cl)c1 | 355 nM | 384 nM | 
17 | CN1CCN(C(=O)c2cccc(Cn3nnc4c3C(=O)c3ccccc3C4=O)c2)CC1 | 658 nM |  | 
18 | O=C1c2cc(O)ccc2C(=O)c2c1nnn2-c1ccc(F)c(Cl)c1 | 144 nM | 171 nM | 
19 | NS(=O)(=O)NCCNc1nonc1/C(=N/O)Nc1ccc(F)c(Br)c1 [EPACADOSTAT] |  |  | TGI (LL2): Active; inhibition in vivo at 30 mg/kg [9]: 50%

Row | Compound | IC50 [1] | IC50 [2] | also measured
20 | O=C1c2ccccc2C(=O)c2c1nnn2-c1ccc(-c2nnn[nH]2)cc1 | 60 nM | 25 nM | 
21 | COC(=O)c1ccc(-n2nnc3c2C(=O)c2ccccc2C3=O)cc1 | 34 nM | 58 nM | 
22 | O=C1c2ccccc2C(=O)c2c1nnn2Cc1ccccc1 | 886 nM | 858 nM | 
23 | O=C1c2ccccc2C(=O)c2c1nnn2-c1ccc(Cl)c(F)c1 | 20 nM | 18 nM | 
24 | O=C1c2ccccc2C(=O)c2c1nnn2-c1ccc(Cl)c(Cl)c1 | 23 nM | 18 nM | 
25 | N#Cc1ccc(-n2nnc3c2C(=O)c2ccccc2C3=O)cc1 | 26 nM | 66 nM | 
26 | O=C1c2ccccc2C(=O)c2c1nnn2-c1ccccc1 | 100 nM | 70 nM | 
27 | O=C1c2ccccc2C(=O)c2c1nnn2-c1ccc(Cl)c([N+](=O)[O-])c1 | 15 nM | 15 nM | 
28 | O=C1c2ccccc2C(=O)c2c1nnn2-c1ccc(F)c(Cl)c1 | 13 nM | 14 nM | 
29 | O=C1c2ccccc2C(=O)c2c1nnn2-c1cc(Cl)c(F)c(Cl)c1 | 33 nM | 34 nM | 
30 | O=C1c2ccccc2C(=O)c2c1nnn2-c1cccc(F)c1 | 52 nM | 101 nM | 
31 | O=C1c2ccccc2C(=O)c2c1nnn2-c1ccc(F)cc1 | 58 nM | 49 nM | 
32 | O=C1c2ccccc2C(=O)c2c1nnn2-c1cccc([N+](=O)[O-])c1 | 29 nM | 28 nM | 
33 | COc1ccc2c(c1)C(=O)c1c(nnn1-c1ccc(F)c(Cl)c1)C2=O | > 10000 nM | > 10000 nM | 
34 | O=C1c2ccccc2C(=O)c2c1nnn2-c1cccc(Cl)c1 | 40 nM | 36 nM | 
35 | O=C1c2ccccc2C(=O)c2c1nnn2-c1ccc2[nH]ncc2c1 | 45 nM | 42 nM | 
36 | O=C1c2ccccc2C(=O)c2c1nnn2-c1ccc([N+](=O)[O-])cc1 | 33 nM | 48 nM | 
37 | O=C1c2ccccc2C(=O)c2c1nnn2-c1ccccc1Cl | > 10000 nM | > 10000 nM | 
38 | O=C1c2ccccc2C(=O)c2c1nnn2-c1ccc2ccncc2c1 | 40 nM | 34 nM | 
